The values below come from patent publication US20190076434A1, “METHODS OF TREATING PERIPHERAL VASCULAR DISEASES, INCLUDING SYSTEMIC SCLEROSIS VASCULOPATHY” (UNIVERSITY OF UTAH RESEARCH FOUNDATION, priority 2016, published 2019).

Series [1] deals with patients with SSc. Description: Example 2: brachial artery flow-mediated dilation (FMD), double-blind randomized crossover, BH4 vs placebo. It counts as in vivo, human. The source says:
Methods: Subjects. Eleven subjects with SSc (3 men and 8 women) were recruited from the University of Utah SSc clinic to participate in the current study. All subjects had either a diagnosis of SSc as accepted by the American College of Rheumatology or early SSc as described by Leroy and […]. All subjects gave their written informed consent before participation. Protocol approval and written informed consent were obtained, according to the University of Utah and Salt Lake City Veterans Affairs Medical Center (VAMC) Institutional Review Board, in accordance with the principles outlined in the Declaration of Helsinki. All data collection took place in the Utah Vascular Research Laboratory at the Salt Lake City VAMC Geriatric Research, Education, and Clinical Center. Experimental Design. […] Subjects consumed a standardized breakfast and were administered oral BH4 (10 mg/kg) or placebo five hours prior arrival at the laboratory. Measurements were taken at the same time of day to eliminate any diurnal effects and after having abstained from food (not including the standardized breakfast), alcohol, caffeine, cardiovascular-acting medications, and exercise for ≥12 hours. […] Heart rate was monitored from a standard 3-lead ECG. […] FMD was quantified as the maximal change in BA diameter after cuff release. NMD was quantified as the maximal change in BA diameter after sublingual nitroglycerin supplementation. […] Shear rate was calculated according to the equation: shear rate (s-1)=(Vmean·8)/vessel diameter. Blood flow was calculated as per the equation: blood flow (mL·min)=(blood velocity×π)×(vessel diameter/2)2×(60). Cumulative shear rate cumulative area under the curve at the time of peak BA vasodilation was integrated with the trapezoidal rule and calculated as per the following equation: τ([…]]). Forearm vascular conductance was calculated according to the equation: […]. Forearm vascular resistance was calculated according to the equation: […]. […] Paired, one-tailed t-tests were used to identify significant changes in measured variables between placebo and BH4 conditions. […]

Series [2] has as its system patients with SSc. Description: Example 2: seated brachial artery blood pressure and mean arterial pressure, BH4 vs placebo. It counts as in vivo, human. The note with it: five hours after oral BH4 10 mg/kg. The method, then:
Experimental Design. A controlled, randomized, double-blind, crossover experimental design with two conditions, BH4 and placebo, was used, with a washout period of ≥5 days between conditions. Subjects consumed a standardized breakfast and were administered oral BH4 (10 mg/kg) or placebo five hours prior arrival at the laboratory. Measurements were taken at the same time of day to eliminate any diurnal effects and after having abstained from food (not including the standardized breakfast), alcohol, caffeine, cardiovascular-acting medications, and exercise for ≥12 hours. In premenopausal women, measurements were performed during the early follicular phase of the menstrual cycle.
Blood Pressure. Seated BA blood pressure measurements were made with a semi-automated BP device (Tango+, SunTech, Morrisville, N.C.) in triplicate after 5 min in the upright seated position with the arm at heart level and under quiet, comfortable, ambient (˜22° C.) laboratory conditions. Mean arterial pressure (MAP) was calculated using the equation: ⅓ systolic blood pressure+⅔ diastolic blood pressure.
Statistics. Statistics were performed using SPSS software (IBM, Chicago, Ill.). Paired, one-tailed t-tests were used to identify significant changes in measured variables between placebo and BH4 conditions. Statistical significance was set at P<0.05 for all analyses. Unless indicated otherwise, data are presented as Means±SEM.

Series [3] deals with patients with SSc.
Where [4] appears, read: 11 SSc patients, five hours after oral BH4 10 mg/kg, P<0.05.
The mark [5] stands for this setting: one SSc subject, BH4 vs placebo, data not shown.

For the molecule `C[C@H](O)[C@H](O)[C@H]1CNc2nc(N)[nH]c(=O)c2N1` [BH4, tetrahydrobiopterin], in the series with patients with SSc [1] (setting [4]), the “absolute FMD, improvement vs. placebo” value is given as 44% and the “percentage FMD, improvement vs. placebo” value worked out at 48%. For the same molecule, the “FMD value in the BH4 condition” value in the series with patients with SSc [1] (second study, placebo FMD 3.2%, corresponds to highest tertile of FMD) was 5.6%. For the same molecule, in the series with patients with SSc [2] (Means ± SEM, P>0.05 vs placebo), the “casual seated diastolic blood pressure” value amounted to 68±2 mmHg and the “casual seated systolic blood pressure” value is given as 109±5 mmHg. Further, the “MAP, difference in the BH4 condition compared to placebo” value in the series with patients with SSc [2] (P<0.05 vs placebo) was about −2 mmHg. In the series with patients with SSc [3] (human, in vivo), the blood pressure is given as 125/77. Besides, in the series on patients with SSc [3] (one SSc subject, BH4 vs placebo, FIG. 7A), the “FMD, increase compared to placebo” value was 73%. The “peak hyperemia, increase compared to placebo” value with patients with SSc [3] (one SSc subject, BH4 vs placebo, FIG. 7B) is listed as 63%. Further, the “area under the curve for hyperemia, increase compared to placebo” value in the series on patients with SSc [3] (one SSc subject, BH4 vs placebo, FIG. 7C) is listed as about 160%. In the series on patients with SSc [3] (setting [5]), the “resting blood flow in the forearm, increase compared to placebo” value is recorded as about 20% and the “resting blood flow in the leg, increase compared to placebo” value worked out at 34%.
